# Results taken from ChEMBL document CHEMBL1127099, “Anticonvulsant activity of glycine-site NMDA antagonists. 2. trans 2-carboxy-4-substituted tetrahydroquinolines” (Bioorg Med Chem Lett, 1993).
# Assays:
# [1] = Plasma half-life was tested; type: ADME, cell-free
# Mus musculus [2] = assay: Tested for the anticonvulsant activity in DBA/2 mice after 30 mins of intraperitoneal administration; type: functional; conditions: ip, 0.5 h
# Glutamate NMDA receptor [3] = assay: Tested for the binding affinity at glycine recognition site of the NMDA receptor in rat cortical membranes using radiolabeled [3H]- L-689 560; type: cell membranes, Membrane
# Rattus norvegicus = species on record: Rattus norvegicus; assay: Tested for the antagonistic potency for blockade of NMDA-induced depolarizations in rat cortical slices; type: functional
# [4] = Ratio of ED50 values administered intracerebroventricular to that of antagonistic potency (Kb); type: functional
# Mus musculus [5] = assay: Tested for the anticonvulsant activity in DBA/2 mice after 15 mins of intracerebroventricular administration at pH 8.0; type: functional
# Glutamate NMDA receptor [6] = assay: Tested for the binding affinity at glycine recognition site of the NMDA receptor in rat cortical membranes using radiolabeled [3H]-L-689,560 560; type: cell membranes, Membrane
# [7] = Partition coefficient (logP); type: physicochemical; conditions: octanol/water
SMILES,ED50 (Mus musculus [2]),IC50 (Glutamate NMDA receptor [3]),Kb (Rattus norvegicus),Ratio [4],other results
NCc1ccc(CC(=O)N[C@H]2C[C@H](C(=O)O)Nc3cc(Cl)cc(Cl)c32)cc1,39 mg/kg,19 nM,240 nM,15,half-life [1]: 1.83 h
NC(Cc1ccc(CC(=O)N[C@H]2C[C@H](C(=O)O)Nc3cc(Cl)cc(Cl)c32)cc1)C(=O)O (stereo partly drawn),29 mg/kg,32 nM,840 nM,0.6,
O=C(Nc1ccccc1)N[C@H]1C[C@H](C(=O)O)Nc2cc(Cl)cc(Cl)c21,> 100 mg/kg,,130 nM,,
C/C(=C\C(N)C(=O)O)CP(=O)(O)O (stereo not drawn) [CGP-37849],0.8 mg/kg,,200 nM,0.1,ED50 (Mus musculus [5]): 0.02 nM
O=C(O)c1cc(O)c2c(Cl)cc(Cl)cc2n1,> 250 mg/kg,,,,
COC(=O)[C@H]1C[C@H](NC(=O)Cc2ccc(CN)cc2)c2c(Cl)cc(Cl)cc2N1.Cl,31.5 mg/kg,,,,
O=[N+]([O-])c1cc([N+](=O)[O-])c2nc(O)c(O)nc2c1,> 10 mg/kg,,1230 nM,>16,
C[C@]12N[C@H](Cc3ccccc31)c1ccccc12 [DIZOCILPINE],0.2 mg/kg,,80 nM,23,
O=C(O)C[C@H]1C[C@H](C(=O)O)Nc2cc(Cl)cc(Cl)c21,,74 nM,,,
O=C(C[C@H]1C[C@H](C(=O)O)Nc2cc(Cl)cc(Cl)c21)Nc1ccccc1,,,,,IC50 (Glutamate NMDA receptor [6]): 19 nM
O=C(O)c1cc(=O)c2ccccc2[nH]1 [TRANSTORINE],> 250 mg/kg,,154000 nM,,
CN(C(=O)Nc1ccccc1)[C@H]1C[C@H](C(=O)O)Nc2cc(Cl)cc(Cl)c21,,9 nM,,,
O=C(Cc1ccccc1)N[C@H]1C[C@H](C(=O)O)Nc2cc(Cl)cc(Cl)c21,46 mg/kg,,530 nM,9,logP [7]: 0.55; IC50 (Glutamate NMDA receptor [6]): 14 nM
